PubChem BioAssay AID1671212
pIC50: −log10 of the molar value.

Target: Casein kinase I isoform gamma-3 (Homo sapiens) (UniProt Q9Y6M4)
Assay: PubChem AID 1671212
Details: Z'-LYTE FRET peptide phosphorylation, recombinant CSNK1G3

Casein kinase I isoform gamma-3 (Homo sapiens), sequence (Q9Y6M4 whole entry, looked up, canonical isoform): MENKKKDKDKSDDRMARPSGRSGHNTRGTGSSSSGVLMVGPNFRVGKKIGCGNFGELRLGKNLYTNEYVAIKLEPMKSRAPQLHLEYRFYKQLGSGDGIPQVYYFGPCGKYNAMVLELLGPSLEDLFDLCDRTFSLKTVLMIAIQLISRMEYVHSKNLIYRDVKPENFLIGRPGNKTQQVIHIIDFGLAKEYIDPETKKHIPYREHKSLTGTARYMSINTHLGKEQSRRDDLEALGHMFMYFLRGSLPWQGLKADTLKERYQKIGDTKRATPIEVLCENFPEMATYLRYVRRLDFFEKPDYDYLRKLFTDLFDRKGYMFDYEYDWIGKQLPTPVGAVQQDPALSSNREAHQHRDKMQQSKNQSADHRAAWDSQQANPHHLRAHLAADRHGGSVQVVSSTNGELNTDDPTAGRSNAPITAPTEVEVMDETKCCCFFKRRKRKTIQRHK

Compound: Brc1c(Br)c(Br)c2n[nH]nc2c1Br
- pIC50: 4.16
